Source: patent US5880099A, “Inositol polyphosphates and methods of using same” (The Regents of the University of California, priority 1997, dated 1999)
“Also recorded” adds a separate entry of the source.

How the values were obtained:
Assay type in all cases: cell-based, human
[1] = tested on: T84 cells (histamine-stimulated chloride ion secretion); assay: Histamine-stimulated chloride ion secretion (short circuit current) in T84 monolayers; details: for effect on histamine-stimulated / calcium-mediated chloride ion secretion (in words): T84 cells; for activity at 200 µM: 200 μM compound alone
Method: Enantiomerically pure 1,2-Bt2 -Ins(3,4,5,6)P4 /AM was synthesized to determine if 1,2-Bt2 -Ins(3,4,5,6)P4 /AM mediates the uncoupling of chloride ion secretion from intracellular calcium concentrations. […] After 7-10 days of incubation on SNAP-WELLS (Corning Costar; Cambridge, Mass.), monolayers had formed tight junctions. Cell monolayers were preincubated with 100, 200 or 400 μM Bt2 -Ins(3,4,5,6)P4 /AM for 30 min prior to mounting. After an additional 30 min, 0.1 mM histamine was added and chloride ion secretion was monitored. Chloride ion secretion was measured as short circuit current (Isc) across T84 monolayers grown to confluence and mounted in Ussing chambers equipped with voltage clamps (Physiologic Instruments; San Diego, Calif.). Data was acquired and analyzed using "Acquire and Analyze" software (Physiologic Instruments).
(§1) Initial studies were directed towards understanding structural determinants of Ins(3,4,5,6)P4 responsible for the inhibitory effect on calcium-mediated chloride ion secretion. A series of cell permeable inositol polyphosphate derivatives were synthesized. These derivatives contained either one or two non-hydrolyzable chemical groups on the 1, 2 or 3 position. T84 monolayers were preincubated for 30 minutes with 200 μM of 2-Bt-1-Me-Ins(3,4,5,6)P4 /AM, Me2 -Ins(3,4,5,6)P4 /AM, Me2 -Ins(1,4,5,6)P4 /AM or 2-Bt-3-Me-Ins(1,4,5,6)P4 /AM.
(§2) Following the incubation, cells were mounted in Ussing chambers. Calcium-mediated chloride ion secretion was stimulated with histamine (10^-4 M). Control values were the response to histamine in coincubated monolayers. Data are represented as mean peak ΔIsc ±SEM, expressed as % control for 8 to 10 experiments. Significant differences were identified using the Student's two-tailed t test.

[2] = tested on: colonic epithelial T84 cells (calcium-mediated chloride ion secretion); assay: Inhibition of calcium-mediated chloride ion secretion (Table I summary)
Description: The invention provides compounds that are agonists or antagonists of inositol polyphosphates. Inositol polyphosphate derivatives can function as inositol polyphosphate agonists and antagonists. The effects of compounds of the invention on Ins(3,4,5,6)P4 - and PtdInsP3 -mediated inhibition of calcium-mediated chloride ion secretion are described in the Examples and summarized in Table I.
Enantiomerically pure 1,2-Bt2 -Ins(3,4,5,6)P4 /AM was synthesized to determine if 1,2-Bt2 -Ins(3,4,5,6)P4 /AM mediates the uncoupling of chloride ion secretion from intracellular calcium concentrations. T84 cells (passages 18-48) were maintained as described previously (Weymer, et al., J. Clin. Invest. 76:1828 (1985)), which is incorporated herein by reference. After 7-10 days of incubation on SNAP-WELLS (Corning Costar; Cambridge, Mass.), monolayers had formed tight junctions. Cell monolayers were preincubated with 100, 200 or 400 μM Bt2 -Ins(3,4,5,6)P4 /AM for 30 min prior to mounting. After an additional 30 min, 0.1 mM histamine was added and chloride ion secretion was monitored. Chloride ion secretion was measured as short circuit current (Isc) across T84 monolayers grown to confluence and mounted in Ussing chambers equipped with voltage clamps (Physiologic Instruments; San Diego, Calif.). Data was acquired and analyzed using "Acquire and Analyze" software (Physiologic Instruments).

[3] = tested on: T84 cells (Ins(3,4,5,6)P4 inhibition of histamine-stimulated chloride ion secretion); assay: Reversal of Bt2 -Ins(3,4,5,6)P4 /AM inhibition of histamine-stimulated chloride ion secretion in T84 cells; details: for Peak ΔIsc (% Control) after histamine (100 μM): 200 μM antagonist + 200 μM Bt2 Ins (3,4,5,6)P4 /AM, mean ± SEM, 30 min; for reversal of the inhibitory effect of Bt2 -Ins(3,4,5,6)P4 /AM / Ins(3,4,5,6)P4-mediated inhibition (in words): T84 cells, histamine-stimulated
Method: as §1, §2
T84 cells were preincubated with cell permeant inositol polyphosphates as described above to determine if any of the inositol polyphosphate derivatives function as antagonists of Ins(3,4,5,6)P4 inhibition of calcium-mediated chloride ion secretion. Following histamine stimulation, short circuit current was measured. […] The % control shown in FIG. 3 represents ΔIsc over peak Isc in control monolayers stimulated with histamine. However, […]

[4] = tested on: T84 colonic epithelial cells (carbachol-mediated inhibition of chloride ion secretion); assay: Reversal of carbachol-mediated inhibition of thapsigargin-stimulated chloride ion secretion in T84 cells; details: carbachol 10^-4 M, thapsigargin 1 μM
Method: T84 colonic epithelial cells were treated with D,L-1,2-cyclohexylidene-Ins(3,4,5,6)P4 /AM, 1-Bu-2-Bt-Ins(3,4,5,6)P4 /AM, Bu2 -Ins(3,4,5,6)P4 /AM, 3-Bt-2-Bu-Ins(1,4,5,6)P4 /AM, Bu2 -Ins(1,4,5,6)P4 /AM, 1-Bt-2-Bu-Ins(3,4,5,6)P4 /AM or 3-Bu-2-Bt-Ins(1,4,5,6)P4 /AM and the short circuit current was measured.
One set of cells was preincubated for 30 min with an inositol polyphosphate derivative. The other two sets of cells were preincubated with vehicle, alone. Measurement of Isc was initiated at time 0. At 5 min, carbachol (10^-4 M) was added to one set of cells preincubated with vehicle alone (designated "Carbachol" in FIG. 5) and to the set of cells preincubated with inositol polyphosphate derivatives (designated "Carbachol+D,L-1,2-Cyclohexylidene-Ins(3,4,5,6)P4 /AM" in FIG. 5A). At 30 min, 1 μM thapsigargin was added. Data were collected for n=4 to 6 experiments.

[5] = tested on: T84 cells (carbachol-stimulated chloride ion secretion); assay: Carbachol-stimulated (calcium-mediated) chloride ion secretion in T84 cells; details: for effect on carbachol-stimulated / calcium-mediated chloride ion secretion (in words): T84 cells, preincubation
Method: The cell permeable derivative D,L-Bt3 -Ins(1,3,4)P3 /AM was synthesized. Colonic epithelial T84 cells were preincubated for 30 min with 400 μM D,L-Bt3 -Ins(1,3,4)P3 /AM prior to mounting in Ussing chambers and measuring ΔIsc. At 10 min, carbachol (10^-4 M) was added to transiently stimulate calcium-mediated chloride ion secretion. Data were the average of 8 experiments with p<0.04, unpaired, two-sided student's t-test. […]

[6] = Homo sapiens, T84, 0.5 h, mean ± SEM, read-out: Peak ΔIsc (% Control) after histamine (100 μM)

Compound	Mechanism and Inositol Polyphosphate Pathway Affected ([2]; pathway: Ins (3,4,5,6)P4)	activity at 200 µM [1, 6] [%]	Peak ΔIsc (% Control) after histamine (100 μM) [3] [% Control]	reversal of the inhibitory effect of Bt2 -Ins(3,4,5,6)P4 /AM / Ins(3,4,5,6)P4-mediated inhibition (in words) [3]	further results
CC(=O)OCOP(=O)(OCOC(C)=O)O[C@H]1[C@H](OP(=O)(OCOC(C)=O)OCOC(C)=O)[C@@H](OP(=O)(OCOC(C)=O)OCOC(C)=O)[C@@H](Cl)[C@@H](Cl)[C@@H]1OP(=O)(OCOC(C)=O)OCOC(C)=O (relative stereo) [D,L-1,2-Cl2-dideoxy-Ins(3,4,5,6)P4 /AM, D,L-1,2-dichloro-1,2-dideoxy-myo-inositol 3,4,5,6-TKphosphate oct (acetoxymethyl) ester]	–	–	–	–	activity at 400 µM ([1]; Homo sapiens, T84, 0.5 h, 400 μM compound alone, mean ± SEM, read-out: Peak ΔIsc (% Control) after histamine (100 μM)): 89.4 ± 7.8%; effect on histamine-stimulated / calcium-mediated chloride ion secretion (in words) [1]: slight inhibitory effect on chloride ion secretion
CCCC(=O)O[C@@H]1[C@@H](OC(=O)CCC)[C@H](OP(=O)(OCOC(C)=O)OCOC(C)=O)[C@@H](OP(=O)(OCOC(C)=O)OCOC(C)=O)[C@H](OP(=O)(OCOC(C)=O)OCOC(C)=O)[C@H]1OP(=O)(OCOC(C)=O)OCOC(C)=O (relative stereo) [D,L-Bt2 -scyllo-Ins(3,4,5,6)P4 /AM, D,L-1,2-O-butyryl-scyllo-inositol 3,4,5,6-TKphosphate oct (acetoxymethyl) ester]	Agonist of	–	–	–	effect on histamine-stimulated / calcium-mediated chloride ion secretion (in words) [1]: inhibit calcium-mediated chloride secretion; effect on histamine-stimulated / calcium-mediated chloride ion secretion (in words) ([1]; listed as scyllo derivative of the cell permeable Bt2 -Ins(3,4,5,6)P4 /AM): at least as effective an inhibitor as the myo derivative
CCCC(=O)O[C@H]1[C@@H](OC)[C@H](OP(=O)(OCOC(C)=O)OCOC(C)=O)[C@@H](OP(=O)(OCOC(C)=O)OCOC(C)=O)[C@H](OP(=O)(OCOC(C)=O)OCOC(C)=O)[C@H]1OP(=O)(OCOC(C)=O)OCOC(C)=O [2-Bt-1-Me-Ins(3,4,5,6)P4 /AM, 2-O-butyryl-1-O-methyl-myo-inositol 3,4,5,6-TKphosphate oct (acetoxymethyl) ester]	Antagonist of	87.3 ± 6.6	117.7 ± 10.6	enhanced chloride ion secretion; also recorded: reversed Ins(3,4,5,6)P4 -mediated inhibition of chloride ion secretion; also recorded: reversed the inhibitory effect of Bt2 -Ins(3,4,5,6)P4 /AM	–
CCCC(=O)O[C@@H]1[C@H](OC)[C@@H](OP(=O)(OCOC(C)=O)OCOC(C)=O)[C@H](OP(=O)(OCOC(C)=O)OCOC(C)=O)[C@@H](OP(=O)(OCOC(C)=O)OCOC(C)=O)[C@@H]1OP(=O)(OCOC(C)=O)OCOC(C)=O [2-Bt-3-Me-Ins(1,4,5,6)P4 /AM, 2-O-butyryl-3-O-methyl-myo-inositol 3,4,5,6-TKphosphate oct (acetoxymethyl) ester]	–	106 ± 3.7	69.7 ± 5.04	had essentially no effect	–
CCCCO[C@@H]1[C@H](OCCCC)[C@@H](OP(=O)(OCOC(C)=O)OCOC(C)=O)[C@H](OP(=O)(OCOC(C)=O)OCOC(C)=O)[C@@H](OP(=O)(OCOC(C)=O)OCOC(C)=O)[C@@H]1OP(=O)(OCOC(C)=O)OCOC(C)=O [Bu2 -Ins(1,4,5,6)P4 /AM, D-2,3-Di-O-butyl-myo-inositol 1,4,5,6-tetrakisphosphate octakis(acetozymethyl)ester]	–	–	–	–	reversal of carbachol-mediated inhibition of chloride ion secretion (in words) [4]: enhanced chloride ion secretion; reversal of carbachol-mediated inhibition of chloride ion secretion (in words) ([4]; listed as 2,3-Bu2 -Ins(1,4,5,6)P4 /AM): did not reverse carbachol-mediated inhibition of chloride ion secretion stimulated by thapsigargin
CO[C@@H]1[C@H](OC)[C@@H](OP(=O)(OCOC(C)=O)OCOC(C)=O)[C@H](OP(=O)(OCOC(C)=O)OCOC(C)=O)[C@@H](OP(=O)(OCOC(C)=O)OCOC(C)=O)[C@@H]1OP(=O)(OCOC(C)=O)OCOC(C)=O [Me2 -Ins(1,4,5,6)P4 /AM, 2,3-di-O-methyl-myo-inositol 3,4,5,6-TKphosphate oct (acetoxymethyl) ester]	–	120 ± 10.6	68.4 ± 7.3	had essentially no effect	–
CO[C@@H]1[C@H](OC)[C@H](OP(=O)(OCOC(C)=O)OCOC(C)=O)[C@@H](OP(=O)(OCOC(C)=O)OCOC(C)=O)[C@H](OP(=O)(OCOC(C)=O)OCOC(C)=O)[C@H]1OP(=O)(OCOC(C)=O)OCOC(C)=O [Me2 -Ins(3,4,5,6)P4 /AM, 1,2-di-O-methyl-myo-inositol 3,4,5,6-Tkphosphate oct (acetoxymethyl) ester]	Antagonist of	104 ± 11.1	107.13 ± 10.2	reversed the inhibitory effect of Bt2 -Ins(3,4,5,6)P4 /AM	reversal of the inhibitory effect of Bt2 -Ins(3,4,5,6)P4 /AM / Ins(3,4,5,6)P4-mediated inhibition (in words) ([3]; listed as Me2 -Ins-(3,4,5,6)P4 /AM): reversed Ins(3,4,5,6)P4 -mediated inhibition of chloride ion secretion
di-palmitoyl-D,L-O-butyryl-phosphatidyl inositol 3,4,5-trisphosphate heptakis (acetoxymethyl) ester [diC16 -Bt-PtdInsP3 /AM]	–	–	–	–	effect on carbachol-stimulated / calcium-mediated chloride ion secretion (in words) [5]: inhibited calcium-mediated chloride ion secretion; inhibition of calcium-mediated chloride ion secretion ([5]; pretreatment of T84 cells, FIG. 7): up to 74%; Mechanism and Inositol Polyphosphate Pathway Affected ([2]; pathway: PtdInsP3): Agonist of
phosphatidylinositol trisphosphate [PtdInsP3, reference compound]	–	–	–	–	effect on carbachol-stimulated / calcium-mediated chloride ion secretion (in words) [5]: No inhibition of calcium-mediated chloride ion secretion
